According to ChEMBL document CHEMBL1147642, “Elimination of antibacterial activities of non-peptide luteinizing hormone-releasing hormone (LHRH) antagonists derived from erythromycin A” (Bioorg Med Chem Lett, 2004):
Converted amounts (≈) assume the structure as drawn.

How the values were obtained:
[1] = test system: Micrococcus luteus; experiment: Minimum inhibitory activity against Micrococcus luteus ATCC 9341; assay type: functional
[2] = test system: Staphylococcus epidermidis; experiment: Minimum inhibitory activity against Staphylococcus epidermidis 3519; assay type: functional
[3] = test system: Streptococcus pyogenes; experiment: Minimum inhibitory activity against Streptococcus pyogenes EES61; assay type: functional
[4] = test system: Streptococcus agalactiae; experiment: Minimum inhibitory activity against Streptococcus agalactiae CMX 508; assay type: functional
[5] = test system: Staphylococcus aureus; experiment: Minimum inhibitory activity against Staphylococcus aureus ATCC 6538P; assay type: functional
[6] = test system: Streptococcus equinus; experiment: Minimum inhibitory activity against Streptococcus bovis A-5169; assay type: functional
[7] = test system: Enterococcus faecium; experiment: Minimum inhibitory activity against Enterococcus faecium ATCC 8043; assay type: functional
[8] = target: T1, Gonadotropin-releasing hormone receptor (Homo sapiens, UniProt P30968); experiment: Binding affinity against human luteinizing releasing hormone receptor cloned in CHO cells; assay type: cell-based
T1 sequence (P30968 whole entry): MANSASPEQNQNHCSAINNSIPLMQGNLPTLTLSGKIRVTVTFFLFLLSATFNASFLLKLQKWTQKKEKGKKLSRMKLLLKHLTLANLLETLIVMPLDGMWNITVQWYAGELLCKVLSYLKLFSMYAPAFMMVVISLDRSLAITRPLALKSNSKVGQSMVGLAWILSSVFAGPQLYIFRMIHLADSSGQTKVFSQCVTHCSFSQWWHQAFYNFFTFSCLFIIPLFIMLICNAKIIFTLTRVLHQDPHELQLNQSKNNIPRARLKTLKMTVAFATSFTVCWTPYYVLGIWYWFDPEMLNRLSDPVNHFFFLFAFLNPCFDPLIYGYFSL

SMILES	MIC [1]	MIC [2]	MIC [3]	MIC [4]	MIC [5]	MIC [6]	MIC [7]	Ki [8]
CC[C@H]1OC(=O)[C@H](C)[C@@H](OC(=O)N2C(=O)OC[C@@H]2C)[C@H](C)[C@@H](OC2O[C@H](C)C[C@H](N(C)CC3CC3)[C@H]2O)[C@@](C)(OC)C[C@@H](C)C(=O)[C@H](C)[C@H]2N(CCc3ccc(F)c(Cl)c3)C(=O)O[C@]12C (some centres undefined)	1.56 µg/mL (≈ 1.66 µM)	50 µg/mL (≈ 53.3 µM)	0.39 µg/mL (≈ 0.416 µM)	0.39 µg/mL (≈ 0.416 µM)	100 µg/mL (≈ 107 µM)	0.39 µg/mL (≈ 0.416 µM)	1.56 µg/mL (≈ 1.66 µM)	–
CCC(C)N(CC1CC1)[C@H]1C[C@@H](C)OC(O[C@@H]2[C@@H](C)[C@H](OC3C[C@@](C)(OC)[C@@H](O)[C@H](C)O3)[C@@H](C)C(=O)O[C@H](CC)[C@@]3(C)OC(=O)N(CCc4ccc(Cl)cc4)[C@@H]3[C@@H](C)C(=O)[C@H](C)C[C@]2(C)OC)[C@@H]1O (some centres undefined)	> 100 µg/mL	> 100 µg/mL	> 100 µg/mL	> 100 µg/mL	> 100 µg/mL	> 100 µg/mL	> 100 µg/mL	27.5 nM
CC[C@H]1OC(=O)[C@H](C)[C@@H](OC2C[C@@](C)(OC)[C@@H](O)[C@H](C)O2)[C@H](C)[C@@H](OC2O[C@H](C)C[C@H](N(C)C3CCCC3)[C@H]2O)[C@@](C)(OC)C[C@@H](C)C(=O)[C@H](C)[C@H]2N(CCc3ccc(Cl)c(Cl)c3)C(=O)O[C@]12C (some centres undefined)	3.1 µg/mL (≈ 3.1 µM)	> 100 µg/mL	3.1 µg/mL (≈ 3.1 µM)	3.1 µg/mL (≈ 3.1 µM)	> 100 µg/mL	3.1 µg/mL (≈ 3.1 µM)	3.1 µg/mL (≈ 3.1 µM)	1.51 nM
CC[C@H]1OC(=O)[C@H](C)[C@@H](OC(=O)N2C(=O)OC[C@@H]2C)[C@H](C)[C@@H](OC2O[C@H](C)C[C@H](N(C)C3CCCC3)[C@H]2O)[C@@](C)(OC)C[C@@H](C)C(=O)[C@H](C)[C@H]2N(CCc3ccc(Cl)cc3)C(=O)O[C@]12C (some centres undefined)	12.5 µg/mL (≈ 13.4 µM)	> 100 µg/mL	3.1 µg/mL (≈ 3.32 µM)	3.1 µg/mL (≈ 3.32 µM)	> 100 µg/mL	3.1 µg/mL (≈ 3.32 µM)	6.2 µg/mL (≈ 6.63 µM)	3.89 nM
CC[C@H]1OC(=O)[C@H](C)[C@@H](OC2C[C@@](C)(OC)[C@@H](O)[C@H](C)O2)[C@H](C)[C@@H](OC2O[C@H](C)C[C@H](N(C)C(C)C)[C@H]2O)[C@@](C)(OC)C[C@@H](C)C(=O)[C@H](C)[C@H]2N(CCc3ccc(Cl)cc3)C(=O)O[C@]12C (some centres undefined)	–	1.56 µg/mL (≈ 1.66 µM)	–	0.02 µg/mL (≈ 0.0213 µM)	1.56 µg/mL (≈ 1.66 µM)	0.2 µg/mL (≈ 0.213 µM)	0.2 µg/mL (≈ 0.213 µM)	–
CC[C@H]1OC(=O)[C@H](C)[C@@H](OC(=O)N2C(=O)OC[C@@H]2C)[C@H](C)[C@@H](OC2O[C@H](C)C[C@H](N(C)C(C)C)[C@H]2O)[C@@](C)(OC)C[C@@H](C)C(=O)[C@H](C)[C@H]2N(CCc3ccc(Cl)cc3)C(=O)O[C@]12C (some centres undefined)	0.78 µg/mL (≈ 0.859 µM)	25 µg/mL (≈ 27.5 µM)	0.02 µg/mL (≈ 0.022 µM)	–	25 µg/mL (≈ 27.5 µM)	0.1 µg/mL (≈ 0.11 µM)	0.78 µg/mL (≈ 0.859 µM)	–
CC[C@H]1OC(=O)[C@H](C)[C@@H](O)[C@H](C)[C@@H](OC2O[C@H](C)C[C@H](N(C)C)[C@H]2O)[C@@](C)(OC)C[C@@H](C)C(=O)[C@H](C)[C@H]2N(CCc3ccc(Cl)cc3)C(=O)O[C@]12C (some centres undefined)	0.78 µg/mL (≈ 1.04 µM)	12.5 µg/mL (≈ 16.6 µM)	–	0.02 µg/mL (≈ 0.0265 µM)	12.5 µg/mL (≈ 16.6 µM)	–	1.56 µg/mL (≈ 2.07 µM)	–
CC[C@H]1OC(=O)[C@H](C)[C@@H](OC2C[C@@](C)(OC)[C@@H](O)[C@H](C)O2)[C@H](C)[C@@H](OC2O[C@H](C)C[C@H](NC)[C@H]2O)[C@@](C)(OC)C[C@@H](C)C(=O)[C@H](C)[C@H]2N(CCc3ccc(Cl)cc3)C(=O)O[C@]12C (some centres undefined)	0.2 µg/mL (≈ 0.223 µM)	1.56 µg/mL (≈ 1.74 µM)	0.1 µg/mL (≈ 0.111 µM)	0.05 µg/mL (≈ 0.0557 µM)	1.56 µg/mL (≈ 1.74 µM)	0.2 µg/mL (≈ 0.223 µM)	0.39 µg/mL (≈ 0.435 µM)	79.4 nM
CC[C@H]1OC(=O)[C@H](C)[C@@H](OC2C[C@@](C)(OC)[C@@H](O)[C@H](C)O2)[C@H](C)[C@@H](OC2O[C@H](C)C[C@H](N(C)CC3CC3)[C@H]2O)[C@@](C)(OC)C[C@@H](C)C(=O)[C@H](C)[C@H]2N(CCc3ccc(Cl)cc3)C(=O)O[C@]12C (some centres undefined)	–	> 100 µg/mL	–	1.56 µg/mL (≈ 1.64 µM)	> 100 µg/mL	–	1.56 µg/mL (≈ 1.64 µM)	13.2 nM
CC[C@H]1OC(=O)[C@H](C)[C@@H](OC(=O)N2C(=O)OC[C@@H]2C)[C@H](C)[C@@H](O[C@@H]2O[C@H](C)C[C@H](N(C)CC3CC3)[C@H]2O)[C@@](C)(OC)C[C@@H](C)C(=O)[C@H](C)[C@H]2N(CCc3ccc(Cl)c(Cl)c3)C(=O)O[C@]12C	3.1 µg/mL (≈ 3.25 µM)	> 100 µg/mL	0.78 µg/mL (≈ 0.817 µM)	0.78 µg/mL (≈ 0.817 µM)	> 100 µg/mL	0.78 µg/mL (≈ 0.817 µM)	3.1 µg/mL (≈ 3.25 µM)	–
CC[C@H]1OC(=O)[C@H](C)[C@@H](OC2C[C@@](C)(OC)[C@@H](O)[C@H](C)O2)[C@H](C)[C@@H](OC2O[C@H](C)C[C@H](N(C)C3CCCCC3)[C@H]2O)[C@@](C)(OC)C[C@@H](C)C(=O)[C@H](C)[C@H]2N(CCc3ccc(Cl)cc3)C(=O)O[C@]12C (some centres undefined)	12.5 µg/mL (≈ 12.8 µM)	> 100 µg/mL	0.78 µg/mL (≈ 0.796 µM)	12.5 µg/mL (≈ 12.8 µM)	> 100 µg/mL	3.1 µg/mL (≈ 3.16 µM)	25 µg/mL (≈ 25.5 µM)	204 nM
CC[C@H]1OC(=O)[C@H](C)[C@@H](OC2C[C@@](C)(OC)[C@@H](O)[C@H](C)O2)[C@H](C)[C@@H](OC2O[C@H](C)C[C@H](N(C)C)[C@H]2O)[C@@](C)(OC)C[C@@H](C)C(=O)[C@H](C)[C@H]2N(CCc3ccc(Cl)cc3)C(=O)O[C@]12C (some centres undefined)	0.05 µg/mL (≈ 0.0549 µM)	0.39 µg/mL (≈ 0.428 µM)	–	0.2 µg/mL (≈ 0.219 µM)	0.39 µg/mL (≈ 0.428 µM)	0.2 µg/mL (≈ 0.219 µM)	0.1 µg/mL (≈ 0.11 µM)	191 nM
CC[C@H]1OC(=O)[C@H](C)[C@@H](OC(=O)N2C(=O)OC[C@@H]2C)[C@H](C)[C@@H](OC2O[C@H](C)C[C@H](N(CC3CC3)CC3CC3)[C@H]2O)[C@@](C)(OC)C[C@@H](C)C(=O)[C@H](C)[C@H]2N(CCc3ccc(Cl)c(Cl)c3)C(=O)O[C@]12C (some centres undefined)	100 µg/mL (≈ 100 µM)	> 100 µg/mL	50 µg/mL (≈ 50.2 µM)	100 µg/mL (≈ 100 µM)	> 100 µg/mL	50 µg/mL (≈ 50.2 µM)	> 100 µg/mL	1.29 nM
CC[C@H]1OC(=O)[C@H](C)[C@@H](OC2C[C@@](C)(OC)[C@@H](O)[C@H](C)O2)[C@H](C)[C@@H](OC2O[C@H](C)C[C@H](N(CC3CC3)CC3CC3)[C@H]2O)[C@@](C)(OC)C[C@@H](C)C(=O)[C@H](C)[C@H]2N(CCc3ccc(F)c(Cl)c3)C(=O)O[C@]12C (some centres undefined)	25 µg/mL (≈ 24.8 µM)	> 100 µg/mL	25 µg/mL (≈ 24.8 µM)	50 µg/mL (≈ 49.5 µM)	> 100 µg/mL	25 µg/mL (≈ 24.8 µM)	25 µg/mL (≈ 24.8 µM)	0.851 nM
CC[C@H]1OC(=O)[C@H](C)[C@@H](OC(=O)N2C(=O)OC[C@@H]2C)[C@H](C)[C@@H](OC2O[C@H](C)C[C@H](N(C)C3CCCCC3)[C@H]2O)[C@@](C)(OC)C[C@@H](C)C(=O)[C@H](C)[C@H]2N(CCc3ccc(Cl)c(Cl)c3)C(=O)O[C@]12C (some centres undefined)	> 100 µg/mL	> 100 µg/mL	6.2 µg/mL (≈ 6.31 µM)	6.2 µg/mL (≈ 6.31 µM)	> 100 µg/mL	6.2 µg/mL (≈ 6.31 µM)	> 100 µg/mL	7.24 nM
CC[C@H]1OC(=O)[C@H](C)[C@@H](OC(=O)N2C(=O)OC[C@@H]2C)[C@H](C)[C@@H](OC2O[C@H](C)C[C@H](N(C)CC3CC3)[C@H]2O)[C@@](C)(OC)C[C@@H](C)C(=O)[C@H](C)[C@H]2N(CCc3ccc(Cl)cc3)C(=O)O[C@]12C (some centres undefined)	12.5 µg/mL (≈ 13.6 µM)	> 100 µg/mL	0.78 µg/mL (≈ 0.847 µM)	1.56 µg/mL (≈ 1.69 µM)	100 µg/mL (≈ 109 µM)	0.78 µg/mL (≈ 0.847 µM)	3.1 µg/mL (≈ 3.37 µM)	18.6 nM
CC[C@H]1OC(=O)[C@H](C)[C@@H](OC2C[C@@](C)(OC)[C@@H](O)[C@H](C)O2)[C@H](C)[C@@H](OC2O[C@H](C)C[C@H](N(C)C3CCCC3)[C@H]2O)[C@@](C)(OC)C[C@@H](C)C(=O)[C@H](C)[C@H]2N(CCc3ccc(Cl)cc3)C(=O)O[C@]12C (some centres undefined)	1.56 µg/mL (≈ 1.62 µM)	50 µg/mL (≈ 51.8 µM)	0.78 µg/mL (≈ 0.808 µM)	0.78 µg/mL (≈ 0.808 µM)	25 µg/mL (≈ 25.9 µM)	0.78 µg/mL (≈ 0.808 µM)	1.56 µg/mL (≈ 1.62 µM)	7.59 nM
CC[C@H]1OC(=O)[C@H](C)[C@@H](O[C@H]2C[C@@](C)(OC)[C@@H](O)[C@H](C)O2)[C@H](C)[C@@H](O[C@@H]2O[C@H](C)C[C@H](N(C)C)[C@H]2O)[C@](C)(O)C[C@@H](C)C(=O)[C@H](C)[C@@H](O)[C@]1(C)O [ERYTHROMYCIN]	0.02 µg/mL (≈ 0.0273 µM)	0.2 µg/mL (≈ 0.273 µM)	0.05 µg/mL (≈ 0.0681 µM)	0.05 µg/mL (≈ 0.0681 µM)	0.2 µg/mL (≈ 0.273 µM)	0.05 µg/mL (≈ 0.0681 µM)	0.05 µg/mL (≈ 0.0681 µM)	–
